Holding throughout (format): biochemical
One assay concerns the target T1, PI3Kγ (Homo sapiens, UniProt P48736).
T1 construct: purchased Reaction Biology Corporation
Put plainly: PI3Kγ isoform profiling (PI3Kδ protocol). The settings on record: for PI3Kγ @ 0.3 μM (% Inh): 0.3 μM compound; for IC50: 10 dose IC50. An excerpt: PI3Kδ assay: The PIP3 product is detected by displacement of biotin-PIP3 from an energy transfer complex consisting of Europium labeled anti-GST monoclonal antibody, a GST-tagged pleckstrin homology (PH) domain, biotinylated PIP3 and Streptavidin-Allophycocyanin (APC). Excitation of Europium in the complex results in an energy transfer to the APC and a fluorescent emission at 665 nm. The PIP3 product formed by PI 3-Kinase(h) activity displaces biotin-PIP3 from the complex resulting in a loss of energy transfer and thus a decrease in signal. This is a 3-step reaction: First, the kinase reaction with PIP2 substrate is carried out in the presence of ATP (10 μM), and the reaction is quenched with stop Solution, and then finally detect by adding Detection Mixture followed by incubation (10 min). Reaction procedure: 1) Prepare substrate in freshly prepared Reaction Buffer. 2) Deliver kinase into the substrate solution and gently mix. 3) Deliver compounds in 100% DMSO (1 μM) into the kinase reaction mixture by Acoustic technology (Echo550; nanoliter range), incubate for 10 min at RT. 4) Deliver ATP into the reaction mixture to initiate the reaction. 5) Incubate for 30 min at 30° C. 6) Quench the reaction with Stop Solution. 7) Add Detection Mixture, and incubate for overnight. 8) Measure HTRF: Ex=320 nm, ratio of Em=615 nm and Em=665 nm. The emission ratio is converted into μM PIP3 production based on PIP3 standard curves. The nonlinear regression to obtain the standard curve and IC50 values are performed using Graphpad Prism software. Assay Buffer: HEPES 50 mM (pH7.0), NaN3 0.02%, BSA 0.01%, Orthovanadate 0.1 mM, 1% DMSO. Detection buffer: HEPES 10 mM (pH7.0), BSA 0.02%, KF 0.16 M, EDTA 4 mM. Substrate: 10 μM PIP2 substrate (PI(4,5)P2).
Compounds of the invention were profiled in a 10 dose IC50 panel against PI3Kα, PI3Kβ, and PI3Kγ kinases, provided by Reaction Biology Corporation, applied to the PI3Kδ protocol provided in Example B1.

For the next assay, the target named is T2, PI3Kδ (Homo sapiens, UniProt O00329).
T2 construct: purchased Reaction Biology Corporation
As to the kind of experiment: PI3Kδ kinase assay (HTRF, PIP3 detection). The settings on record: for PI3Kδ @ 0.1 μM (% Inh): 0.1 μM compound; for PI3Kδ @ 0.1 μM (% Inh) / PI3Kδ @ 1 μM (% Inh) / PI3Kδ @ 0.01 μM (% Inh): 10 μM ATP; for PI3Kδ @ 1 μM (% Inh): 1 μM compound; for IC50: 10 dose IC50, 10 μM ATP; for PI3Kδ @ 0.01 μM (% Inh): 0.01 μM compound. The essentials: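 PIP3 formation read by loss of energy transfer as it displaces biotin-PIP3 from a Eu anti-GST/GST-PH/streptavidin-APC complex, calibrated against PIP3 standards.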
(In TR-FRET formats the signal depends on donor and acceptor labels being close together.)

The next assay has as its target T3, BMX/ETK (Homo sapiens, UniProt P51813).
T3 construct: purchased Reaction Biology Corporation
T3 sequence (P51813 1-675): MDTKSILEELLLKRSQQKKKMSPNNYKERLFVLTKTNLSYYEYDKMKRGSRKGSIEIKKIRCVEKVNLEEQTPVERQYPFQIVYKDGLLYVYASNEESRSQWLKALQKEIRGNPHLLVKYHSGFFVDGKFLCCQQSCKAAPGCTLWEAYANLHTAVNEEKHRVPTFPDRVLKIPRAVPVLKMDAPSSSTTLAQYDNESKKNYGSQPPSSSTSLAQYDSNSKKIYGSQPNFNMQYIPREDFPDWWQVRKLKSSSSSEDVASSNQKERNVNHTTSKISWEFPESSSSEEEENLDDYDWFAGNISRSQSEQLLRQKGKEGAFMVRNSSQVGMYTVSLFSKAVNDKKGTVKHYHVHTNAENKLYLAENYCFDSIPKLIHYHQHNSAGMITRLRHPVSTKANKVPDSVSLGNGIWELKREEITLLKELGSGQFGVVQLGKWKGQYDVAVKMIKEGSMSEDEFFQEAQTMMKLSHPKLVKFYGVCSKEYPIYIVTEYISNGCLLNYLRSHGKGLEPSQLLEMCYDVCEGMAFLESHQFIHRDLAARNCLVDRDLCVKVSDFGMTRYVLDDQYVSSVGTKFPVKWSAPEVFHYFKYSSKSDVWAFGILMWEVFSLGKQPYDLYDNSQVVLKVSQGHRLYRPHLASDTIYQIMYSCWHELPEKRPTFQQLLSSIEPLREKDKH
Put plainly: BMX/ETK kinase profiling (BTK protocol). The following applies: for BMX/ETK @ 0.3 μM (% Inh): 0.3 μM compound; for IC50: 10 dose IC50. The method, then:
BTK assay: In vitro profiling protein kinases was performed using the “HotSpot” assay platform. Briefly, specific kinase/substrate pairs along with required cofactors were prepared in reaction buffer. Compounds were prepared as 10 mM stock solutions in DMSO. Compounds were delivered into the reaction, followed 15-20 minutes later by addition of a mixture of ATP (Sigma, St. Louis Mo.) and ^33P ATP (Perkin Elmer, Waltham Mass.) to a final concentration of 10 μM. Reactions were carried out at RT for 120 min, followed by spotting of the reactions onto P81 ion exchange filter paper (Whatman Inc., Piscataway, N.J.). Unbound phosphate was removed by extensive washing of filters in 0.75% Phosphoric acid. […] IC50 values and curve fits were obtained using Prism (GraphPad Software). Buffer Conditions: 20 mM Hepes (pH 7.5), 10 mM MgCl2, 1 mM EGTA, 0.02% Brij35, 0.02 mg/mL BSA, 0.1 mM Na3VO4, 2 mM DTT, 1% DMSO.
Compounds of the invention were profiled in a 10 dose IC50 panel against BMX/ETK, ITK and TEC kinases, provided by Reaction Biology Corporation, applied to the BTK protocol provided in Example B1.

T2 sequence (O00329 whole entry): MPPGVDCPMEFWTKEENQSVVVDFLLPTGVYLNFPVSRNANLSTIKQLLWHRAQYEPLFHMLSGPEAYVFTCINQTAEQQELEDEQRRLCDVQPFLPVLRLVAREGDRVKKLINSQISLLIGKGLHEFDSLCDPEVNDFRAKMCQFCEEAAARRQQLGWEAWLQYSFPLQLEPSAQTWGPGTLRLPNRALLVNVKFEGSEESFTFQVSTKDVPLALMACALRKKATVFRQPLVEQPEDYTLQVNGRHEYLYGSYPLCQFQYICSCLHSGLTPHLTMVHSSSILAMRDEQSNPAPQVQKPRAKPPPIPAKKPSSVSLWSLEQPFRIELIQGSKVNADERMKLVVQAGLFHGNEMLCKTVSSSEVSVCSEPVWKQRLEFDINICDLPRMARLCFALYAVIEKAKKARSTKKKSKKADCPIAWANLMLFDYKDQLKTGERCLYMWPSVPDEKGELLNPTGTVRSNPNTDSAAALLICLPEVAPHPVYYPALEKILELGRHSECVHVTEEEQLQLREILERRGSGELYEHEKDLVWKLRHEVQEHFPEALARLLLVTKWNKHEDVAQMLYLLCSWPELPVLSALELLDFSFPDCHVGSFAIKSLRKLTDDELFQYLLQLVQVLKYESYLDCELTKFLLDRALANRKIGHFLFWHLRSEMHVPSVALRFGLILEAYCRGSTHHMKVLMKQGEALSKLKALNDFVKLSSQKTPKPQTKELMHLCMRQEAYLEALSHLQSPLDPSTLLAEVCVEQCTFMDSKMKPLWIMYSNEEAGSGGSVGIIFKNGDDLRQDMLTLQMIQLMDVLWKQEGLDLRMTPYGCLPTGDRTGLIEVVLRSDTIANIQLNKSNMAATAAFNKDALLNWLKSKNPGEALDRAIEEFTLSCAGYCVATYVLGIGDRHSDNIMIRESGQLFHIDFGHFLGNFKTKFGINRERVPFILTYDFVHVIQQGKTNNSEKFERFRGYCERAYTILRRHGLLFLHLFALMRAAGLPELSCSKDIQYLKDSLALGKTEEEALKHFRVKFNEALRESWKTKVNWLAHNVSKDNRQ
T2 sequence (P27986 whole entry partner): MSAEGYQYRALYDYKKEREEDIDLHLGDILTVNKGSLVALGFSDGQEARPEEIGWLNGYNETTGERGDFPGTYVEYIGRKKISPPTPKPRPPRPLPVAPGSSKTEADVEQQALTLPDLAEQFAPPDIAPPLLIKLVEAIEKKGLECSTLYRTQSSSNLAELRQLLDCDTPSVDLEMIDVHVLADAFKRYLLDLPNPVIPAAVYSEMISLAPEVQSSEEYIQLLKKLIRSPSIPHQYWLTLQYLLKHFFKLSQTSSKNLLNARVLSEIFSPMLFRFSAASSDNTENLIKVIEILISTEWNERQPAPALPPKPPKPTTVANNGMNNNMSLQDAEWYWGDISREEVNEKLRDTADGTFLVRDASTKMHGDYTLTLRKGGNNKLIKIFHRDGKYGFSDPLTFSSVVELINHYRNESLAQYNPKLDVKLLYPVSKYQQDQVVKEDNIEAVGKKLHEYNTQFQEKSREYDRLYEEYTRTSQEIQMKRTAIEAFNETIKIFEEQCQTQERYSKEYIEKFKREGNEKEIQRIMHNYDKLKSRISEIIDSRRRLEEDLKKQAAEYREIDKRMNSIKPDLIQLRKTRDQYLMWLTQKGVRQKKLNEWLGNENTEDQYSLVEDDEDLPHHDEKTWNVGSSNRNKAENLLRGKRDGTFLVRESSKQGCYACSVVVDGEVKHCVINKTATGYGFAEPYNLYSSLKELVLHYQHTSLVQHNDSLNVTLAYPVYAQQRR
T1 sequence (P48736 whole entry): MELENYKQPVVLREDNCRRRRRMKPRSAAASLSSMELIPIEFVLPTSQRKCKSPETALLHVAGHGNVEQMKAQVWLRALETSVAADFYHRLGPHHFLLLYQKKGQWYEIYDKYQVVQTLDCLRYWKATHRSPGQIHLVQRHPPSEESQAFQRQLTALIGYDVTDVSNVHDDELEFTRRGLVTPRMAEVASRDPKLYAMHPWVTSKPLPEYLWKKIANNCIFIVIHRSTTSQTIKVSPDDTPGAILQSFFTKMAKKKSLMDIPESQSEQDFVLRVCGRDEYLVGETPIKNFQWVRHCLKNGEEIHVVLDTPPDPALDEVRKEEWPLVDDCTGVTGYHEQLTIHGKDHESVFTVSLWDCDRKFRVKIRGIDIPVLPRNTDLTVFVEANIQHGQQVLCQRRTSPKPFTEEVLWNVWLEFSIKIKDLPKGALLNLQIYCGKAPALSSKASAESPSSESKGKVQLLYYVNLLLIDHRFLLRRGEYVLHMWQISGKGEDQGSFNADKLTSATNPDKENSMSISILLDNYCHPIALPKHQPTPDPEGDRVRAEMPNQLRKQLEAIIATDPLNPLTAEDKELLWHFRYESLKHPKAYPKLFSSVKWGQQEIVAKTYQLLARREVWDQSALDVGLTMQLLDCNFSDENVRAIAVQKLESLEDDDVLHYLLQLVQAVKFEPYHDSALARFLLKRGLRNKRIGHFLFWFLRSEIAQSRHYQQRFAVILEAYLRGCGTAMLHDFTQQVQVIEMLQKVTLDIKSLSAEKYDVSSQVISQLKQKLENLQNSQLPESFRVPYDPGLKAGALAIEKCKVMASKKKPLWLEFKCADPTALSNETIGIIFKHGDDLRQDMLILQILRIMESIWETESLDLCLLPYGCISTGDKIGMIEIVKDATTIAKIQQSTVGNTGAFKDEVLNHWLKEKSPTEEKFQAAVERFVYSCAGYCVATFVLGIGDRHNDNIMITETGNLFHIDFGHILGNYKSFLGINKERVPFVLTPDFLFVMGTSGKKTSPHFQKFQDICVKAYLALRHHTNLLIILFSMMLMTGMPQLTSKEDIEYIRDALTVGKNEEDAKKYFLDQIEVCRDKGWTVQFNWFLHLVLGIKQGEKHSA

For orientation: IC50 means the concentration at which inhibition is half-maximal. Read a high IC50 as weaker potency. For the compound `Nc1ncnc2c1c(-c1cc(F)c3c(c1)NCCO3)nn2C1Cc2ccccc2C1` [Compound No. 84, 1-(2,3-dihydro-1H-inden-2-yl)-3-(8-fluoro-3,4-dihydro-2H-1,4-benzoxazin-6-yl)-1H-pyrazolo[3,4-d]pyrimidin-4-amine], the “PI3Kγ @ 0.3 μM (% Inh)” value at PI3Kγ is 55.61 % Inh. On PI3Kδ, the “PI3Kδ @ 0.1 μM (% Inh)” value came out at 53.06 % Inh, the “PI3Kδ @ 1 μM (% Inh)” value is given as 88.36 % Inh and half-maximal inhibition (IC50) required 34.8 nM. Besides, the “BMX/ETK @ 0.3 μM (% Inh)” value at BMX/ETK was 62.51 % Inh.

Regarding `Nc1ncnc2c1c(-c1ccc(Cl)c(O)c1)cn2C1Cc2ccccc2C1` [Compound No. 93, 5-[4-amino-7-(2,3-dihydro-1H-inden-2-yl)-7H-pyrrolo[2,3-d]pyrimidin-5-yl]-2-chlorophenol], the “PI3Kγ @ 0.3 μM (% Inh)” value at PI3Kγ worked out at 72.89 % Inh. For the same compound, on PI3Kδ, the “PI3Kδ @ 0.01 μM (% Inh)” value was 24.46 % Inh, the “PI3Kδ @ 0.1 μM (% Inh)” value is listed as 59.57 % Inh and the IC50 was found to be 21.2 nM. For the same compound, the “BMX/ETK @ 0.3 μM (% Inh)” value at BMX/ETK came out at 110.06 % Inh.

Take `Nc1ncnc2c1c(-c1ccc(Cl)c(O)c1F)nn2C1Cc2ccccc2C1` [Compound No. 100, 3-[4-amino-1-(2,3-dihydro-1H-inden-2-yl)-1H-pyrazolo[3,4-d]pyrimidin-3-yl]-6-chloro-2-fluorophenol]: the “PI3Kγ @ 0.3 μM (% Inh)” value on PI3Kγ was 57.52 % Inh. On PI3Kδ, the “PI3Kδ @ 0.01 μM (% Inh)” value came to 29.01 % Inh, the “PI3Kδ @ 0.1 μM (% Inh)” value was found to be 71.71 % Inh and the IC50 was 44.7 nM. The “BMX/ETK @ 0.3 μM (% Inh)” value at BMX/ETK came to 107.37 % Inh.

With `Nc1ncnc2c1c(-c1cc(O)c(F)c(F)c1)cn2C1Cc2ccccc2C1` [Compound No. 101, 5-[4-amino-7-(2,3-dihydro-1H-inden-2-yl)-7H-pyrrolo[2,3-d]pyrimidin-5-yl]-2,3-difluorophenol], on PI3Kγ, the “PI3Kγ @ 0.3 μM (% Inh)” value worked out at 57.6 % Inh. Further, on PI3Kδ, the “PI3Kδ @ 0.01 μM (% Inh)” value amounted to 26.61 % Inh, the “PI3Kδ @ 0.1 μM (% Inh)” value is 62.53 % Inh and 62.1 nM corresponded to half-maximal inhibition (IC50). Further, at BMX/ETK, the “BMX/ETK @ 0.3 μM (% Inh)” value was 97.14 % Inh.

On to `Nc1ncnc2c1c(-c1cc(O)c(F)c(C(F)(F)F)c1)nn2C1Cc2ccccc2C1` [Compound No. 102, 5-[4-amino-1-(2,3-dihydro-1H-inden-2-yl)-1H-pyrazolo[3,4-d]pyrimidin-3-yl]-2-fluoro-3-(trifluoromethyl)phenol], for which the “PI3Kγ @ 0.3 μM (% Inh)” value at PI3Kγ came out at 57.81 % Inh. Also, at PI3Kδ, the “PI3Kδ @ 0.1 μM (% Inh)” value worked out at 93.99 % Inh, the “PI3Kδ @ 1 μM (% Inh)” value was determined as 100.0 % Inh and half-maximal inhibition (IC50) was put at 2.5 nM. The “BMX/ETK @ 0.3 μM (% Inh)” value on BMX/ETK was found to be 4.6 % Inh.

Turning to `Nc1ncnc2c1c(-c1cc(O)c(Cl)c(Cl)c1)cn2C1Cc2ccccc2C1` [Compound No. 107, 5-[4-amino-7-(2,3-dihydro-1H-inden-2-yl)-7H-pyrrolo[2,3-d]pyrimidin-5-yl]-2,3-dichlorophenol], the “PI3Kγ @ 0.3 μM (% Inh)” value on PI3Kγ is 45.49 % Inh. The half-maximal inhibitory concentration (IC50) against PI3Kδ was determined as 12.9 nM. The “BMX/ETK @ 0.3 μM (% Inh)” value at BMX/ETK is recorded as 90.55 % Inh.

For the compound `Nc1ncnc2c1c(-c1cc(O)cc(F)c1)nn2C1Cc2ccccc2C1` [compound 3, 3-(4-amino-1-(2,3-dihydro-1H-inden-2-yl)-1H-pyrazolo[3,4-d]pyrimidin-3-yl)-5-fluorophenol], the IC50 against PI3Kγ came to 53.5 nM; at PI3Kδ, 7.9 nM; on BMX/ETK it was 189 nM.

On to `Nc1ncnc2c1c(-c1cc(O)cc(F)c1)nn2C1CCc2ccccc2C1` (stereo not shown) [compound 6, 3-(4-amino-1-(1,2,3,4-tetrahydronaphthalen-2-yl)-1H-pyrazolo[3,4-d]pyrimidin-3-yl)-5-fluorophenol], for which the IC50 at PI3Kγ was 122 nM; against PI3Kδ, 8.6 nM; against BMX/ETK, 184 nM.

With `C=CC(=O)N1CC(n2nc(-c3cc(O)cc(F)c3)c3c(N)ncnc32)Cc2cc(C)ccc21` (stereo not shown) [compound 31, 1-(3-(4-amino-3-(3-fluoro-5-hydroxyphenyl)-1H-pyrazolo[3,4-d]pyrimidin-1-yl)-6-methyl-3,4-dihydroquinolin-1(2H)-yl)prop-2-en-1-one], on PI3Kγ, the “PI3Kγ @ 0.3 μM (% Inh)” value came to 0.74 % Inh and the half-maximal inhibitory concentration (IC50) turned out to be 6460 nM. At PI3Kδ, the “PI3Kδ @ 0.1 μM (% Inh)” value is listed as 44.38 % Inh and the IC50 was found to be 33.6 nM. For the same compound, at BMX/ETK, the “BMX/ETK @ 0.3 μM (% Inh)” value was 89.72 % Inh and the IC50 was 6400 nM.

For `Nc1ncnc2c1c(-c1cc(O)cc(F)c1)nn2C1Cc2ccc(F)cc2C1` (stereo not shown) [compound 57, 3-[4-amino-1-(5-fluoro-2,3-dihydro-1H-inden-2-yl)-1H-pyrazolo[3,4-d]pyrimidin-3-yl]-5-fluorophenol], the “PI3Kγ @ 0.3 μM (% Inh)” value at PI3Kγ is 30.85 % Inh. On PI3Kδ, the “PI3Kδ @ 0.1 μM (% Inh)” value amounted to 96.89 % Inh, the “PI3Kδ @ 1 μM (% Inh)” value is recorded as 100.0 % Inh and 8 nM corresponded to half-maximal inhibition (IC50). Besides, the “BMX/ETK @ 0.3 μM (% Inh)” value at BMX/ETK came out at 74.27 % Inh.

Regarding `Nc1ncnc2c1c(-c1cc(O)c(F)c(Cl)c1)cn2C1Cc2ccccc2C1` [compound 110, 5-[4-amino-7-(2,3-dihydro-1H-inden-2-yl)-7H-pyrrolo[2,3-d]pyrimidin-5-yl]-3-chloro-2-fluorophenol], on PI3Kγ, the “PI3Kγ @ 0.3 μM (% Inh)” value is 47.05 % Inh. Besides, at PI3Kδ, the “PI3Kδ @ 0.01 μM (% Inh)” value turned out to be 40.85 % Inh, the “PI3Kδ @ 0.1 μM (% Inh)” value is on record as 76.2 % Inh and half-maximal inhibition (IC50) required 11.9 nM. Further, the “BMX/ETK @ 0.3 μM (% Inh)” value at BMX/ETK is 92.59 % Inh.

Take `N#Cc1cc(-c2cn(C3Cc4ccccc4C3)c3ncnc(N)c23)cc(O)c1F` [compound 115, 5-[4-amino-7-(2,3-dihydro-1H-inden-2-yl)-7H-pyrrolo[2,3-d]pyrimidin-5-yl]-2-fluoro-3-hydroxybenzonitrile]: the “PI3Kγ @ 0.3 μM (% Inh)” value on PI3Kγ is 59.21 % Inh. On PI3Kδ, the “PI3Kδ @ 0.01 μM (% Inh)” value was 82.64 % Inh, the “PI3Kδ @ 0.1 μM (% Inh)” value was 93.12 % Inh and the IC50 was 1.9 nM. Also, the “BMX/ETK @ 0.3 μM (% Inh)” value at BMX/ETK stood at 72.12 % Inh.

(Values after patent US20210317140A1, “Heterocyclic Compounds and Methods of Use” (MEDIVATION TECHNOLOGIES, INC, priority 2013, published 2021).)
